How the values were obtained:
[1] = system: mixture of bacteria; assay: CTFA Preservative Challenge Test in shampoo, mixed bacteria; type: cell-based; settings: for concentration of the component alone required to yield 100% retardation (Qa, Qb): percent by weight in shampoo, plate count <10 cfu/g after 7 days; for Day 7 Count Mixed Bacteria: shampoo containing the sample, initial count 4×10^6 cfu/mL, surviving organisms on day 7
Procedure: (§1) The CTFA Preservative Challenge Test was performed on a shampoo containing the samples below against a mixture of fungi (C. albicans (ATCC #10231) and A. brasiliensis (ATCC #16404)) having an initial count of 7.9×10^5 cfu/mL or a mixture of bacteria having an initial count of 4×10^6 cfu/mL. The shampoos inoculated with bacteria were allowed to stand for 14 days and the shampoos inoculated with fungi were allowed to stand for 7 days. The samples were evaluated for surviving organisms on day 7 for fungi-innoculated shampoos and days 7 and 14 for bacteria-innoculated shampoos.
From the table, synergism for the combinations above against mixed bacteria in shampoo was calculated by the method described in C. E. Kull et al., “Mixtures of Quaternary Ammonium Compounds and Long-chain Fatty Acids as Antifungal Agents”, Applied Microbiology, 9:538-541 (1961). The synergism value (QA/Qa+QB/Qb) was determined. […] Qa is the concentration of the first component alone (in percent by weight) required to yield 100% retardation of the bacteria or fungi. Qb is the concentration of the second component alone (in percent by weight) required to yield 100% retardation of the bacteria or fungi. […] Values for (QA/Qa+QB/Qb) of 1 and greater represent an additive effect and an antagonistic effect, respectively.

[2] = system: mixture of fungi (C. albicans (ATCC #10231) and A. brasiliensis (ATCC #16404)); assay: CTFA Preservative Challenge Test in shampoo, mixed fungi; type: cell-based; settings: shampoo containing the sample; initial count 7.9×10^5 cfu/mL; surviving organisms on day 7
Procedure: as §1
From the table, synergism for the combinations above against mixed bacteria in shampoo was calculated by the method described in C. E. Kull et al., “Mixtures of Quaternary Ammonium Compounds and Long-chain Fatty Acids as Antifungal Agents”, Applied Microbiology, 9:538-541 (1961). The synergism value (QA/Qa+QB/Qb) was determined. […] Qa is the concentration of the first component alone (in percent by weight) required to yield 100% retardation of the bacteria or fungi. Qb is the concentration of the second component alone (in percent by weight) required to yield 100% retardation of the bacteria or fungi. When the value of (QA/Qa+QB/Qb) is less than one, the mixture is synergistic. Values for (QA/Qa+QB/Qb) of 1 and greater represent an additive effect and an antagonistic effect, respectively. […]

| SMILES | concentration of the component alone required to yield 100% retardation (Qa, Qb) [1] [%] | Day 7 Count Mixed Bacteria [1] | Day 7 Count Mixed Fungi [2] |
| --- | --- | --- | --- |
| CC(=O)c1ccc(O)cc1 [0.35% hydroxyacetophenone, 4-hydroxyacetophenone] | > 0.35 | 3.2 × 10^2 cfu/mL | 1.5 × 10^2 cfu/mL |
| OCCCO [5% 1,3-propanediol, 1,3-propanediol] | > 5 | 5.2 × 10^2 cfu/mL | 9.2 × 10^2 cfu/mL |

Reference: patent publication US20250268253A1, “MULTIFUNCTIONAL NATURAL PROTECTANT SYSTEMS WITH HYDROXYACETOPHENONE” (BARENTZ NORTH AMERICA, LLC, priority 2021, published 2025)
